This passage reports EC50 results from ChEMBL document CHEMBL1138874, “Design and synthesis of a series of novel pyrazolopyridines as HIF-1alpha prolyl hydroxylase inhibitors” (Bioorg Med Chem Lett, 2006).

In the assay the test system is HEK293. In words: cells. As to conditions: Homo sapiens.

A value given as a limit tells only on which side of the number the result lay.

What is called EC50 is the concentration giving half of the maximal effect. A low value points to an effect from little substance. `O=C(O)c1cnn(-c2ccc(COCc3cccc(C(F)(F)F)c3)cn2)c1` returned an EC50 of 11 µM.

`COc1cccc(COCc2ccc(-n3cc(C(=O)O)cn3)nc2)c1`: the EC50 is more than 100 µM.

Consider `O=C(O)c1cnn(-c2ccc(COCc3ccc(Cl)cc3)cn2)c1`, for which a half-maximal response (EC50) required 7.4 µM.

`COc1ccc(COCc2ccc(-n3cc(C(=O)O)cn3)nc2)cc1` registered an EC50 of 1 µM.

Consider `O=C(O)c1cnn(-c2ccc(COCc3cccc(Cl)c3)cn2)c1`, for which the EC50 was determined as 3.8 µM.

In turn, `O=C(O)c1cnn(-c2ccc(COCc3ccccc3)cn2)c1` had an EC50 of 25 µM.

Turning to `N#Cc1ccccc1-c1ccc(COCc2ccc(-n3cc(C(=O)O)cn3)nc2)cc1`, the EC50 was more than 100 µM.
